{"source": "patent US20160219829A1", "about": "“ANTI-ODOR MATERIAL FOR ANIMAL LITTERS USING PHOSPHOROTRIAMIDES IN POWDER FORM” (priority 2013, published 2016)", "molecular_target": "T1, urease (Canavalia ensiformis, UniProt P07374)", "T1 construct": "purchased Sigma", "T1 sequence (P07374 whole entry, looked up)": "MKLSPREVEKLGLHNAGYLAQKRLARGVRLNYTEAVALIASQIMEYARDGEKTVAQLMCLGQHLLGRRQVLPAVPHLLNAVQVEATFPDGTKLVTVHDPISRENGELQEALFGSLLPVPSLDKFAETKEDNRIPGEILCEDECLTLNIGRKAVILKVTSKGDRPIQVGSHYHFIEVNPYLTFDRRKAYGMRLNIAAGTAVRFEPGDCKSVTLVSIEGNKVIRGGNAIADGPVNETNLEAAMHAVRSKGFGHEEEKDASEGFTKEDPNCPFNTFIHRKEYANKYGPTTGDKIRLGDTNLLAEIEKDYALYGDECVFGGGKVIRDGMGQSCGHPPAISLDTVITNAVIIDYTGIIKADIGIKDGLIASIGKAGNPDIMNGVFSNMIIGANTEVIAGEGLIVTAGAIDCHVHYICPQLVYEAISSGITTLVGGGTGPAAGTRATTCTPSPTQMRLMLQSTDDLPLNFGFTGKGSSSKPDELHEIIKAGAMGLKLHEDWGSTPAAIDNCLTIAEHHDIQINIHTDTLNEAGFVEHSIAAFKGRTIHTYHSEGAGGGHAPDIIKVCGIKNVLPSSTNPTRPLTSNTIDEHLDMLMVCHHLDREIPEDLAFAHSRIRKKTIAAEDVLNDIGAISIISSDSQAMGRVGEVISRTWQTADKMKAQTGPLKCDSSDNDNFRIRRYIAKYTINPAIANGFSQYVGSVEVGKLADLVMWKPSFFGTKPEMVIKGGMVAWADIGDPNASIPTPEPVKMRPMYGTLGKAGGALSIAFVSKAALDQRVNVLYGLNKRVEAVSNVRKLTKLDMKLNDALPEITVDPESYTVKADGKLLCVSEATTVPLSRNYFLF", "type": "biochemical", "experimental": "To simulate soiled anti-odor material, urea/urease solution was prepared and added to the anti-odor material.\nIn the same beaker, weight 50 g of demineralised water.\nIn a small plastic cup, weight 0.012 g of urease. Then empty the plastic cup in the beaker containing the water and rinse it with the water/urea solution.\nFill a standard volume with anti-odor material (litter+n-BTPT powder) and equalize the surface. Empty the standard volume in a plastic bowl used for analysis.\nEmpty slowly the urea/urease solution on the anti-odor material while making sure that no solution comes in contact with sides of the plastic bowl.\nPut a cover on the plastic bowl (the cover having a hole).\nInsert the tube of a Gastec pump (GV-100S) in the hole of the cover.\nNote the start time of the test and take a reading of the tube every 30 minutes for the first 7 hours.\nTake a reading at 24 and 48 hour.\nDosimetry tests were performed according to the methodology above. The results were taken after 48 h of testing.\nDosimetry tests were then realised to evaluate the performance of the litter samples by measuring the ammonia release (in ppm). More particularly, performances of the odor-retardant material with n-BTPT in a powder form, in melted phase or coating a particulate support could be evaluated.", "data": [{"compound": "CCCCNP(N)(N)=S", "note": "[n-BTPT, N-(n-butyl)thiophosphoric triamide]", "values": [{"measurement": "Ammonia release (48 h)", "setting": "final concentration 350 g/MT n-BTPT in litter, bentonite absorptive substrate", "result": 25, "unit": "ppm"}, {"measurement": "ammonia release reaches a maximum (FIG. 1)", "setting": "n-BTPT concentration of 0.03%, grinded powder in litter, 48 h", "result": 62, "unit": "%"}]}]}
